In brackets after ≈: the same amount, converted by molar mass. Counter-ions that a name gives are not always drawn.
How the values were obtained:
[1] = system: rigidity provoked by reserpine; assay: Antagonism to reserpinic rigidity (electromyogram); assay type: in vivo, rats; design: key to Antagonism to reserpine rigidity: The results were expressed by an increasing number of + sign; ++: The results were expressed by an increasing number of + sign; details: for Antagonism to reserpine rigidity: 20 mg/kg i.v., 30 minutes after 10 mg/kg i.v. reserpine, EMG, rats; for activity against reserpine rigidity (in words): dose of 20 mg/kg
Experimental: 3. Antagonism to reserpinic rigidity
This test was effected on rats using the procedure of Jurna I. [Arch. Pharmak. Exp. Path., Vol. 260 (1968), p. 80-88] wherein the electromyogram (EMG) caused by a dorsiflexion due to the shock of the foot by electrodes placed against the muscles of the front portion of the rear paw of the animal. A dose of 10 mg/kg of reserpine was intravenously administered and then 30 minutes later when the hypertonicity of the muscle was the maximum, the test product was intravenously administered at a dose of 20 mg/kg. The inhibition was observed by the electromyogram showing the antagonism exercised by the test product against the rigidity provoked by reserpine.

[2] = system: serotonine-provoked contraction of guinea pig ileon; assay: Antiserotonine activity on isolated ileon; assay type: cell-based; details: for IC50: Cavia porcellus, isolated guinea pig ileon, Tyrode liquid 37° C, contact time one minute, read-out: IC50 (approximate 50% inhibiting concentration, contraction by serotonine)
Experimental: Serotonine provokes contraction of a certain number of smooth muscles and especially guinea pig ileon and antiserotonine activity is determined in vitro on the isolated ileon of the guinea pig immersed in oxygenated Tyrode liquid at 37° C. The activity of the antagonist is measured by the concentration thereof which after a contact time of one minute diminishes by about 50% the contraction of a portion of ileon when a standard dose of serotonine is added to the Tyrode liquid. The approximate 50% inhibiting concentration (IC50) was determined in micrograms per ml and the results are in Table IV.

Acute toxicity = details: mouse, in vivo, ip; intraperitoneal, mice, mortality 48 hours later; read-out: Approximate DL50 (50% lethal dose)
Experimental: The 50% lethal dose (DL50) was determined by intraperitoneal administration of the products to mice and the mortality was determined 48 hours later.

amytal-induced sleep = assay: Potentialization of sleeping time (amytal); assay type: in vivo, female mice; details: for minimal effective dose: Mus musculus, ip, 1 h, i.p. one hour before 80 mg/kg i.v. amytal, female mice 18 to 22 g, 25° C, read-out: DE50 (minimum dose for significantly prolonging the duration of sleep); for neurosedative activity (in words): conclusion from Table II
Experimental: 2. Potentialization of sleeping time
This test was effected with amytal (5-ethyl-5-isoamyl-barbituric acid) on groups of female mice weighing 18 to 22 g and held at 25° C for the duration of the test. The test products were administered intraperitoneally at different does one hour before the intravenous administration of 80 mg/kg of amytal and the time of sleep was recorded as the suspending time for the straighting reflex of the mice as negative.

[3] = system: platelet aggregation caused by collagen; assay: Platelet aggregation caused by collagen (turbidimetric method of Born); assay type: cell-based, rabbit; details: for IC50: Oryctolagus cuniculus, rabbit platelet-rich plasma, 40 μg/ml collagen, read-out: IC50 (dose which inhibited by 50% the aggregation caused by collagen); for activity against platelet aggregation caused by collagen (in words): conclusion in words
Experimental: Platelet aggregation is effected with a Mustard aggregometer using the turbidimetric method of Born [J. Physiol., Vol. 168 (1963), p. 178-195] which consists of measuring the variation in transmission of a light ray or beam passing through a tube containing a plasma rich in platelets. When the aggregates are formed, the amount of light transmitted is greater and the optical density is diminished. The platelets used are obtained from rabbit plasma and the agent inducing the aggregation was 40 μg/ml of collagen. The 50% inhibiting concentration (IC50) was determined for each product which was the dose which inhibited by 50% the aggregation caused by collagen.

[4] = system: toxicity of the amphetamine group (dexamphetamine sulfate); assay: Antagonism toward amphetamine type (dexamphetamine-induced mortality); assay type: in vivo, male mice; details: for ED50: Mus musculus, ip, i.p. one hour before 15 mg/kg i.p. dexamphetamine sulfate, mortality at 4 hours, male mice, read-out: DE50 (dose which reduced by 50% the number of dead animals); for antagonism with respect to the toxicity of the amphetamine group (in words): conclusion from Table I
Experimental: 1. Antagonism toward amphetamine type
The antagonism of the compounds with regard to amphetaminic group was studied on groups of 10 male mice which received intraperitoneally 15 mg/kg of dexamphetamine sulfate one hour after the intraperitoneal administration of the test compound.
The mortality per group was totally counted 4 hours after the administration of dexamphetamine sulfate and the DE50 dose which reduced by 50% the number of dead animals was determined as shown in Table I.

Compound	Antagonism to reserpine rigidity [1]	activity against reserpine rigidity (in words) [1]	IC50 [2]	LD50 at 48 h (Acute toxicity)	minimal effective dose (amytal-induced sleep)	neurosedative activity (in words) (amytal-induced sleep)	IC50 [3]	ED50 [4]	antagonism with respect to the toxicity of the amphetamine group (in words) [4]	activity against platelet aggregation caused by collagen (in words) [3]	antiserotonine activity (in words) ([2]; conclusion in words)
COc1ccc2[nH]cc(CC3NCCc4c3[nH]c3ccc(OC)cc43)c2c1 (centres unmarked) [Example 1, 1-(5'-methoxy-3'-indolyl-methyl)-6-methoxy-1,2,3,4-tetrahydro[9H]-pyrido-[3,4-b]-indole-hydrochloride]	++	very active	0.5 µg/mL	150 mg/kg	10 mg/kg	very important neurosedative activity					
COc1ccc2[nH]cc(CC3NCCc4c3[nH]c3ccc(O)cc43)c2c1 (centres unmarked) [Example 2, 1-(5'-methoxy-3'-indolyl-methyl)-6-hydroxy-1,2,3,4-tetrahydro[9H]-pyrido-[3,4-b]-indole]			0.5 to 1 µg/mL (≈ 1.44 to 2.88 µM)	200 mg/kg	50 mg/kg						
COc1ccc2[nH]c3c(c2c1)CCNC3Cc1c[nH]c2ccccc12 (centres unmarked) [Example 3, 1-(3'-indolylmethyl)-6-methoxy-1,2,3,4-tetrahydro-[9H]-pyrido-[3,4-b]-indole hydrochloride]	+		1 µg/mL	350 mg/kg							
Clc1ccc2[nH]cc(CC3NCCc4c3[nH]c3ccccc43)c2c1 (centres unmarked) [Example 4, 1-(5'-chloro-3'-indolyl-methyl)-1,2,3,4-tetrahydro-[9H]-pyrido-[3,4-b]-indole hydrochloride]				500 mg/kg	50 mg/kg						
COc1ccc2[nH]cc(CC3NCCc4c3[nH]c3ccccc43)c2c1 (centres unmarked) [Example 5, 1-(5'-methoxy-3'-indolyl-methyl)-1,2,3,4-tetrahydro-[9H]pyrido-[3,4-b]-indole-hydrochloride]	++	very active	2 µg/mL	150 mg/kg	50 mg/kg		~100 µM				
Oc1ccc2[nH]c3c(c2c1)CCNC3Cc1c[nH]c2ccccc12 (centres unmarked) [Example 6, 6-hydroxy-1-(3'-indolyl-methyl)-1,2,3,4-tetrahydro [9H]pyrido-[3,4-b]-indole-fumarate]			2 µg/mL (≈ 6.3 µM)	150 mg/kg	20 mg/kg			35 mg/kg	important antagonism	important activity	
Clc1ccc2[nH]c3c(c2c1)CCNC3Cc1c[nH]c2ccccc12 (centres unmarked) [Example 7, 6-chloro-1-(3'-indolylmethyl)-1,2,3,4-tetrahydro-[9H]-pyrido-[3,4-b]-indole]			1 to 2 µg/mL (≈ 2.98 to 5.96 µM)	150 mg/kg	10 mg/kg	very important neurosedative activity		20 mg/kg	important antagonism		
Oc1ccc2[nH]cc(CC3NCCc4c3[nH]c3ccccc43)c2c1 (centres unmarked) [Example 9, 1-(5'-hydroxy-3'-indolyl-methyl)-1,2,3,4-tetrahydro-[9H]-pyrido-[3,4-b]-indole-hydrochloride]			0.1 to 0.2 µg/mL				1 µM	50 mg/kg		important activity	important antiserotonine activity
c1ccc(COc2ccc3[nH]cc(CC4NCCc5c4[nH]c4ccc(OCc6ccccc6)cc54)c3c2)cc1 (centres unmarked) [Example 10, 1-(5'-benzyloxy-3' -indolylmethyl)-6-benzyloxy-1,2,3,4-tetrahydro-[9H]-pyrido-[3,4-b]-indole-hydrochloride]				300 mg/kg							

From US4005206A, “[9H]-Pyrido-[3,4-b]-indoles” (Roussel-UCLAF, priority 1976, dated 1977)
